Measurements: US10457654B2 (GENENTECH, INC., priority 2017, dated 2019)
Structures can show the parent of a compound that is named as a salt.

molecular target: hNav1.7 (Homo sapiens (Human), UniProt Q15858); assay: Tritiated compound binding to membranes from cells expressing hNav1.7 and the β1 subunit, competitive binding (LBA, Ex. 243A); conditions: 100 pM [3H]compound, 18 h, room temperature; read-out: Nav1.7 LBA (Ex. 243A) IC50
Experimental: Tritiated Compound Binding to Membranes Isolated from Cells that Heterologously Express hNav1.7 and the β1 Subunit
Preparation of membranes containing recombinantly expressed sodium channels: Frozen recombinant cell pellets were thawed on ice and diluted to 4 times the cell pellet weight with ice cold 50 mM Tris HCl, pH 7.4 buffer. The cell suspensions were homogenized on ice using a motorized glass dounce homogeniser. Homogenates were further diluted 8.4 times with ice cold 50 mM Tris HCl, pH 7.4 buffer and then centrifuged at 200×g at 4° C. for 15 min. The supernatants were collected and centrifuged at 10000×g at 4° C. for 50 min. […] The homogenized membranes were then processed through a syringe equipped with a 26 gauge needle. Protein concentrations were determined by Bradford Assay and the membranes were stored at −80° C.
Radioligand Binding Studies: Saturation experiments. A competitive NaV1.7 inhibitor having a methyl group was tritiated. Three tritiums were incorporated in place of methyl hydrogens to generate [^3H]compound. Binding of this radioligand was performed in 5 mL borosilicate glass test tubes at room temperature. […] Non-specific binding was determined in the presence of 1 μM unlabeled compound. After 18h, the reactants were filtered through GF/C glass fiber filters presoaked in 0.5% w/v polyethylene imine. […] [^3H]compound bound to filters was quantified by liquid scintillation counting.
Competitive binding experiments: Binding reactions were performed in 96-well polypropylene plates at room temperature for 18h. In 360 μL, membranes were incubated with 100 pM [^3H]compound and increasing concentrations of Test Compound. Non-specific binding was defined in the presence of 1 μM unlabeled compound. Reactions were transferred and filtered through 96-well glass fiber/C filter plates presoaked with 0.5% polyethylene imine. The filtered reactions were washed 5 times with 200 μL ice cold buffer containing 0.25% BSA. Bound radioactivity was determined by liquid scintillation counting.
Data Analysis: For saturation experiments, non-specific binding was subtracted from total binding to provide specific binding and these values were recalculated in terms of pmol ligand bound per mg protein. Saturation curves were constructed and dissociation constants were calculated using the single site ligand binding model: Beq=(Bmax*X)/(X+Kd), where Beq is the amount of ligand bound at equilibrium, Bmax is the maximum receptor density, Kd is the dissociation constant for the ligand, and X is the free ligand concentration. For competition studies percent inhibition was determined and IC50 values were calculated using a 4 parameter logistic model (% inhibition=(A+((B−A)/(1+((x/C)^D)))) using XLfit, where A and B are the maximal and minimum inhibition respectively, C is the IC50 concentration and D is the (Hill) slope.

Sequence of hNav1.7 (Q15858 whole entry, looked up): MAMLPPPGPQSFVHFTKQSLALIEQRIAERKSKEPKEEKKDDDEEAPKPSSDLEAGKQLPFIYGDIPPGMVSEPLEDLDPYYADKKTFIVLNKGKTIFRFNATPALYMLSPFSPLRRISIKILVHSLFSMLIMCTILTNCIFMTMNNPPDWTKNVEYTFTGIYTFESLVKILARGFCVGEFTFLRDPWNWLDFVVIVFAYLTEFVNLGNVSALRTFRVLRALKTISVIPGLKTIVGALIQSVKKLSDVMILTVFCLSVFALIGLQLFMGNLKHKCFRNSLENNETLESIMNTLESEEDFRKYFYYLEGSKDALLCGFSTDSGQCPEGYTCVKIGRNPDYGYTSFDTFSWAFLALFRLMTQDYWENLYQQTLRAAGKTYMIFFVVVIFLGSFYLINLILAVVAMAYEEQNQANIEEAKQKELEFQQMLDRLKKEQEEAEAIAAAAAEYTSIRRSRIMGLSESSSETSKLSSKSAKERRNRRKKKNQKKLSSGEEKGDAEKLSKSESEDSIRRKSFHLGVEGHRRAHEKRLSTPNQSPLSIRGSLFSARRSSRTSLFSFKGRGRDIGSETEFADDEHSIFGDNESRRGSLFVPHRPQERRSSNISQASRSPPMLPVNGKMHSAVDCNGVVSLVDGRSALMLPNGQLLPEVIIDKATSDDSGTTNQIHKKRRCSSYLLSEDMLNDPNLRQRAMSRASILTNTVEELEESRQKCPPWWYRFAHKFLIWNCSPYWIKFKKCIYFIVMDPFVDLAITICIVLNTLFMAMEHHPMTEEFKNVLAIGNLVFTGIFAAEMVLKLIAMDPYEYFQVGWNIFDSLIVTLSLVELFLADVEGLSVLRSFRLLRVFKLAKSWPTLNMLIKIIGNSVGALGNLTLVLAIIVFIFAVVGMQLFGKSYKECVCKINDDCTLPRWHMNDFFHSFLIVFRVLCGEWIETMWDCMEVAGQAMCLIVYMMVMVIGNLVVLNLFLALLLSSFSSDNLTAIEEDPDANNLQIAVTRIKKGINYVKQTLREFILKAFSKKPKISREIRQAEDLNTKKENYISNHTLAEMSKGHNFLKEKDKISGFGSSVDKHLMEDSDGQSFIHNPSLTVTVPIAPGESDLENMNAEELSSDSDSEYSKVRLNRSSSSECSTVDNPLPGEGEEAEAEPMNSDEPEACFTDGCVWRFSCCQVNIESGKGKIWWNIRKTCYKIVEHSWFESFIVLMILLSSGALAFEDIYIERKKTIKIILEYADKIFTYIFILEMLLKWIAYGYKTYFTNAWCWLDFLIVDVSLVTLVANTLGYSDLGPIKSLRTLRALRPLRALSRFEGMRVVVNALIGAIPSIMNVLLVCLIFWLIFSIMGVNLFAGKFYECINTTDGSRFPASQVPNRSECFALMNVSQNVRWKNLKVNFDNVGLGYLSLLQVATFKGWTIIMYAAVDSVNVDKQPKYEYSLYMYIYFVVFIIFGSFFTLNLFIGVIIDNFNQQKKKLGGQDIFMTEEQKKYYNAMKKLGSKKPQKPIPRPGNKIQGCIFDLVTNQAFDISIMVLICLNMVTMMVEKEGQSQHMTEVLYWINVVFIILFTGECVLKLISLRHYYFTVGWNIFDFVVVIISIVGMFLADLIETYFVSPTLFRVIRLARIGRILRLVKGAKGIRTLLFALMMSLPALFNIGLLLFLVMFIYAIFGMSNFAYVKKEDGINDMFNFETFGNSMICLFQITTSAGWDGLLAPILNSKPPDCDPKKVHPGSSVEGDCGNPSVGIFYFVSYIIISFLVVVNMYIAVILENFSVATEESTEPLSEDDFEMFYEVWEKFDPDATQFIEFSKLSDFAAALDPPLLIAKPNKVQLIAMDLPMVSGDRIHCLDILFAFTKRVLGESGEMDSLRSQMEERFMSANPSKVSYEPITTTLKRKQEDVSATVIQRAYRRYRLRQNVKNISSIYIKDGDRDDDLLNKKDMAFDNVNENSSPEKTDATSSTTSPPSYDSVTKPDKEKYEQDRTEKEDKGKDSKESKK
Sequence of hNav1.7 (Q07699 whole entry partner, looked up): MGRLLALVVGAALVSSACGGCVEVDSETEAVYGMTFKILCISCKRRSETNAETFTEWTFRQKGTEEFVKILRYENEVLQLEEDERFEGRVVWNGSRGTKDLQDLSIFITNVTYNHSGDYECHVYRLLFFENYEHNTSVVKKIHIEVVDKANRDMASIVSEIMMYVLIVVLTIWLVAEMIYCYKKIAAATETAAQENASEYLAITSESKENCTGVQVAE

| IC50 [nM] | Compound |
| --- | --- |
| 2.42 | CN(C1CNC1)[C@H]1CCCC[C@@H]1Nc1cc(F)c(S(=O)(=O)Nc2nccs2)cc1C1CC1 [Example 57, 4-(((1S,2S)-2-(azetidin-3-yl(methyl)amino)cyclohexyl)amino)-5-cyclopropyl-2-fluoro-N-(thiazol-2-yl)benzenesulfonamide dihydrochloride] |
| 3.42 | CNCCN(C)[C@H]1CCCC[C@@H]1Nc1cc(F)c(S(=O)(=O)Nc2nccs2)cc1Cl [Example 58, 5-chloro-2-fluoro-4-(((1S,2S)-2-(methyl(2-(methylamino)ethyl)amino)cyclohexyl)amino)-N-(thiazol-2-yl)benzenesulfonamide formate] |
| 198 | O=S(=O)(Nc1ccncn1)c1cc(Cl)c(N[C@H]2CCCC[C@@H]2N2CCCC2)cc1F [Example 60, 5-chloro-2-fluoro-N-(pyrimidin-4-yl)-4-(((1S,2S)-2-(pyrrolidin-1-yl)cyclohexyl)amino)benzenesulfonamide] |
| 558 | O=S(=O)(Nc1ccncn1)c1cc(Cl)c(N[C@H]2CCCC[C@@H]2N2CCC(O)C2)cc1F (stereo partly drawn) [Example 61, 5-chloro-2-fluoro-4-(((1S,2S)-2-(3-hydroxypyrrolidin-1-yl)cyclohexyl)amino)-N-(pyrimidin-4-yl)benzenesulfonamide] |
| 57.8 | O=S(=O)(Nc1cccc(F)n1)c1cc(Cl)c(N[C@H]2CCCC[C@@H]2N2CCC(O)C2)cc1F (stereo partly drawn) [Example 62, 5-chloro-2-fluoro-N-(6-fluoropyridin-2-yl)-4-(((1S,2S)-2-(3-hydroxypyrrolidin-1-yl)cyclohexyl)amino)benzenesulfonamide] |
| 11.6 | CCN[C@H]1CCCC[C@@H]1Nc1cc(F)c(S(=O)(=O)Nc2nccs2)cc1C1CC1 [Example 64, 5-cyclopropyl-4-(((1S,2S)-2-(ethylamino)cyclohexyl)amino)-2-fluoro-N-(thiazol-2-yl)benzenesulfonamide formate] |
| 29.3 | CN(C)[C@H]1CCCC[C@@H]1Nc1cc(F)c(S(=O)(=O)Nc2nccs2)cc1C(F)(F)F [Example 65, 4-(((1S,2S)-2-(dimethylamino)cyclohexyl)amino)-2-fluoro-N-(thiazol-2-yl)-5-(trifluoromethyl)benzenesulfonamide] |
| 17.3 | O=S(=O)(Nc1nccs1)c1cc(Cl)c(N[C@H]2CCCC[C@@H]2N2CC[C@H](O)C2)cc1F [Example 67, 5-chloro-2-fluoro-4-(((1S,2S)-2-((S)-3-hydroxypyrrolidin-1-yl)cyclohexyl)amino)-N-(thiazol-2-yl)benzenesulfonamide] |
| 16.6 | O=S(=O)(Nc1nccs1)c1cc(Cl)c(N[C@H]2CCCC[C@@H]2N2CC[C@@H](O)C2)cc1F [Example 68, 5-chloro-2-fluoro-4-(((1S,2S)-2-((R)-3-hydroxypyrrolidin-1-yl)cyclohexyl)amino)-N-(thiazol-2-yl)benzenesulfonamide] |
| 296 | CN(C)[C@H]1CCCC[C@@H]1Nc1cc(F)c(S(=O)(=O)Nc2ccncn2)cc1C1CC1 [Example 69, 5-cyclopropyl-4-(((1S,2S)-2-(dimethylamino)cyclohexyl)amino)-2-fluoro-N-(pyrimidin-4-yl)benzenesulfonamide formate] |
| 3.46 | O=S(=O)(Nc1nccs1)c1cc(Cl)c(N[C@H]2CCCC[C@@H]2N2CCCCC2)cc1F [Example 70, 5-chloro-2-fluoro-4-(((1S,2S)-2-(piperidin-1-yl)cyclohexyl)amino)-N-(thiazol-2-yl)benzenesulfonamide formate] |
| 41.3 | CCN(C)[C@H]1CCCC[C@@H]1Nc1cc(F)c(S(=O)(=O)Nc2cccc(F)n2)cc1Cl [Example 71, 5-chloro-4-(((1S,2S)-2-(ethyl(methyl)amino)cyclohexyl)amino)-2-fluoro-N-(6-fluoropyridin-2-yl)benzenesulfonamide] |
| 14.8 | CN(CCO)[C@H]1CCCC[C@@H]1Nc1cc(F)c(S(=O)(=O)Nc2cccc(F)n2)cc1Cl [Example 72, 5-chloro-2-fluoro-N-(6-fluoropyridin-2-yl)-4-(((1S,2S)-2-((2-hydroxyethyl)(methyl)amino)cyclohexyl)amino)benzenesulfonamide] |
| 19.7 | CCN[C@H]1CCCC[C@@H]1Nc1cc(F)c(S(=O)(=O)Nc2cccc(F)n2)cc1Cl [Example 73, 5-chloro-4-(((1S,2S)-2-(ethylamino)cyclohexyl)amino)-2-fluoro-N-(6-fluoropyridin-2-yl)benzenesulfonamide] |
| 91.7 | CN[C@H]1CCCC[C@@H]1Nc1cc(F)c(S(=O)(=O)Nc2cccc(F)n2)cc1Cl [Example 74, 5-chloro-2-fluoro-N-(6-fluoropyridin-2-yl)-4-(((1S,2S)-2-(methylamino)cyclohexyl)amino)benzenesulfonamide] |
| 37.9 | CN(C)[C@H]1CC[C@H](C(F)(F)F)C[C@@H]1Nc1cc(F)c(S(=O)(=O)Nc2nccs2)cc1Cl [Example 75, 5-chloro-4-(((1S,2S,5S)-2-(dimethylamino)-5-(trifluoromethyl)cyclohexyl)amino)-2-fluoro-N-(thiazol-2-yl)benzenesulfonamide] |
| 116 | CN(C)[C@H]1CC[C@@H](C(F)(F)F)C[C@@H]1Nc1cc(F)c(S(=O)(=O)Nc2nccs2)cc1Cl [Example 76, 5-chloro-4-(((1S,2S,5R)-2-(dimethylamino)-5-(trifluoromethyl)cyclohexyl)amino)-2-fluoro-N-(thiazol-2-yl)benzenesulfonamide] |
| 43.2 | CN(C)[C@H]1C[C@H](C(F)(F)F)CC[C@@H]1Nc1cc(F)c(S(=O)(=O)Nc2nccs2)cc1Cl [Example 77, 5-chloro-4-(((1S,2S,4R)-2-(dimethylamino)-4-(trifluoromethyl)cyclohexyl)amino)-2-fluoro-N-(thiazol-2-yl)benzenesulfonamide] |
| 95.6 | CN(C)[C@H]1CCCC[C@@H]1Oc1cc(F)c(S(=O)(=O)Nc2nccs2)cc1C(F)(F)F [Example 78, 4-(((1S,2S)-2-(dimethylamino)cyclohexyl)oxy)-2-fluoro-N-(thiazol-2-yl)-5-(trifluoromethyl)benzenesulfonamide formate] |
| 9.28 | CN(CC(N)=O)[C@H]1CCCC[C@@H]1Nc1cc(F)c(S(=O)(=O)Nc2nccs2)cc1Cl [Example 79, 2-(((1S,2S)-2-((2-chloro-5-fluoro-4-(N-(thiazol-2-yl)sulfamoyl)phenyl)amino)cyclohexyl)(methyl)amino)acetamide formate] |
| 122 | CNC(=O)CN(C)[C@H]1CCCC[C@@H]1Nc1cc(F)c(S(=O)(=O)Nc2nccs2)cc1Cl [Example 80, 2-(((1S,2S)-2-((2-chloro-5-fluoro-4-(N-(thiazol-2-yl)sulfamoyl)phenyl)amino)cyclohexyl)(methyl)amino)-N-methylacetamide formate] |
| 1740 | CN(C)[C@@H]1C[C@@H](C(F)(F)F)CC[C@H]1Nc1cc(F)c(S(=O)(=O)Nc2nccs2)cc1Cl [Example 81, 5-chloro-4-(((1R,2R,4S)-2-(dimethylamino)-4-(trifluoromethyl)cyclohexyl)amino)-2-fluoro-N-(thiazol-2-yl)benzenesulfonamide] |
| 3.35 | CN(C)[C@H]1C[C@@H](C(F)(F)F)CC[C@@H]1Nc1cc(F)c(S(=O)(=O)Nc2nccs2)cc1Cl [Example 82, 5-chloro-4-(((1S,2S,4S)-2-(dimethylamino)-4-(trifluoromethyl)cyclohexyl)amino)-2-fluoro-N-(thiazol-2-yl)benzenesulfonamide] |
| 379 | CN(C)[C@@H]1CC[C@@H](C(F)(F)F)C[C@H]1Nc1cc(F)c(S(=O)(=O)Nc2nccs2)cc1Cl [Example 83, 5-chloro-4-(((1R,2R,5R)-2-(dimethylamino)-5-(trifluoromethyl)cyclohexyl)amino)-2-fluoro-N-(thiazol-2-yl)benzenesulfonamide] |
| 3000 | CN(C)[C@@H]1CC[C@H](C(F)(F)F)C[C@H]1Nc1cc(F)c(S(=O)(=O)Nc2nccs2)cc1Cl [Example 84, 5-chloro-4-(((1R,2R,5S)-2-(dimethylamino)-5-(trifluoromethyl)cyclohexyl)amino)-2-fluoro-N-(thiazol-2-yl)benzenesulfonamide] |
| 252 | CN(C)[C@H]1CCCC[C@@H]1Nc1cc(F)c(S(=O)(=O)Nc2cccc(Cl)n2)cc1Cl [Example 85, 5-chloro-N-(6-chloropyridin-2-yl)-4-(((1S,2S)-2-(dimethylamino)cyclohexyl)amino)-2-fluorobenzenesulfonamide] |
| 38.1 | CC(O)CN(C)[C@H]1CCCC[C@@H]1Nc1cc(F)c(S(=O)(=O)Nc2cccc(F)n2)cc1Cl (stereo partly drawn) [Example 86, 5-chloro-2-fluoro-N-(6-fluoropyridin-2-yl)-4-(((1S,2S)-2-((2-hydroxypropyl)(methyl)amino)cyclohexyl)amino)benzenesulfonamide] |
